Reference: patent US8518883B2, “Method of reducing deleterious effects of ischemia by administration of a thrombopoietin receptor ligand” (MCW Research Foundation, Inc., priority 2006, dated 2013)

System: in vitro rat hearts
Assay: Isolated perfused (Langendorff) rat heart, 25 min global ischemia and 180 min reperfusion: hemodynamics, infarct size, recovery of LVDP
Conditions: for Effect on the cardioprotective effect of Tpo (infarct size, LVDP recovery): Glibenclamide 3 μM 15 min alone, then with Tpo 1.0 ng/ml 15 min prior to ischemia; for Effect on cardioprotection, drug alone: no Tpo
Description: The study was directed to determining whether Tpo (0.01-10.0 ng/ml) confers immediate cardioprotection in rat hearts and the contribution of potassium channels to the underlying mechanism. Hearts from normoxic 8 week old Sprague Dawley rats (n=8/group) were isolated and perfused in the Langendorff mode. Hemodynamic function was recorded under steady-state conditions prior to 25 minutes global no flow ischemia and 180 minutes reperfusion.
Isolated heart perfusion. Isolated rat hearts were perfused with bicarbonate buffer at constant pressure in a retrograde manner and instrumented as described in Baker, et al., Am. J. Physiol. Heart Circulat. Physiol. 278:1395-1400, 2000 potassium channel blockers were added to this perfusate as needed. A 3-way tap, located immediately above the site of cannulation, allowed the entire perfusate to be diverted away from the heart to produce global, no-flow ischemia. Reperfusion was achieved by repositioning of the tap to allow perfusate to be delivered to the heart. Left ventricular function was monitored continuously throughout each experiment as described in Baker, et al., supra, 2000. End-diastolic pressure was initially set to 3 mmHg for 2 minutes. The balloon was then progressively inflated with a microsyringe to set end-diastolic pressures to 8 mmHg for the left ventricle, with developed pressure and heart rate recorded during steady-state conditions. Coronary flow rate was measured throughout the experiment by timed collections of the coronary effluent from the right side of the heart into a graduated cylinder. Coronary flow rate was expressed as milliliters per minute per gram wet weight.
Resistance to myocardial ischemia. Hearts from adult rats were perfused with bicarbonate buffer, and biventricular function was monitored continuously throughout each experiment as described in Baker, et al., supra, 2000. For concentration response studies, hearts were then perfused with Tpo (0.01-10.0 ng/ml) for 15 minutes prior to 25 minutes ischemia and 180 minutes reperfusion. For mechanism studies with potassium channel blockers, hearts were perfused with drugs for 15 minutes alone followed by 15 minutes in combination with Tpo prior to ischemia. Hearts perfused with potassium channel blockers alone in the absence of Tpo for 30 minutes prior to ischemia served as untreated controls for these studies. Recovery of post-ischemic left ventricular developed pressure was expressed as a percentage of its pre-drug, pre-ischemic value.
Assessment of ventricular function. Left ventricular function was monitored continuously throughout each experiment as described in Baker, et al., supra, 2000. Recovery of left ventricular pressure following ischemia was used to assess resistance to ischemia.
Measurement of infarct size/area at risk at 3 hours reperfusion were used to assess resistance to myocardial ischemia. For characterization of infarction size, hearts were perfused with 10 ml bicarbonate buffer containing triphenyltetrazolium chloride (SIGMA) at 37° C.
The heart was sectioned in 2 mm segments from apex to atrio-ventricular groove in a transverse fashion. Each segment was recorded and placed in formalin. After twenty-four (24) hours, the specimen was digitally photographed in a camera mount to normalize specimen-to-lens distance. Each photograph was then appended to Adobe Photoshop (Adobe™) to measure pixel density of infarcted versus non-infarcted areas. The percentage of infarction of each slide was expressed as a percentage of the entire area of the heart.
Hearts from male Sprague Dawley rats at 8 weeks of age were isolated and perfused with Tpo at 0.01, 0.1, 1.0, and 10 ng/ml for 15 minutes prior to 25 minutes global ischemia and 180 minutes reperfusion (FIG. 2). Tpo (1.0 ng/ml) reduced coronary flow rate prior to ischemia from 6±1 ml/min/g to 5±1 ml/min/g, increased left ventricular developed pressure from 119±15 mmHg to 151±19 mmHg and decreased heart rate from 240±34 beats/minute to 228±17 beats/minute. […]

| SMILES | Effect on the cardioprotective effect of Tpo (infarct size, LVDP recovery) | Effect on the cardioprotective effect of Tpo (infarct size, LVDP recovery) (listed as glibenclamide) | Effect on cardioprotection, drug alone (Glibenclamide 3 μM alone) | Effect on cardioprotection, drug alone (Wortmannin 100 nM alone) |
| --- | --- | --- | --- | --- |
| COc1ccc(Cl)cc1C(=O)NCCc1ccc(S(=O)(=O)NC(=O)NC2CCCCC2)cc1 [Glibenclamide, reference compound] | completely abolished | completely prevented | no effect |  |
| COC[C@H]1OC(=O)c2coc3c2[C@@]1(C)C1=C(C3=O)[C@@H]2CCC(=O)[C@@]2(C)C[C@H]1OC(C)=O [Wortmannin, reference compound] |  |  |  | no effect |
